pIC50: −log10 of the molar value.
Assays:
Assay type in all cases: functional, cell-based
WiDr [1] = test: Inhibition of cell growth in drug resistant WiDr colon cell line; conditions: Homo sapiens
RPMI-8226 [2] = test: Inhibition of cell growth in drug sensitive 8226 myeloma cell line; conditions: Homo sapiens
L1210 [3] = test: Inhibition of cell growth in (L1210 leukemia) MDR cells determined by MTT assay; conditions: Mus musculus
MCF7 [4] = test: Inhibition of cell growth in drug sensitive MCF-7 breast cell line; conditions: Homo sapiens
WiDr [5] = test: Inhibition of cell growth in drug sensitive WiDr colon cell line; conditions: Homo sapiens
MCF7 [6] = test: Inhibition of cell growth in (MCF7 breast) dox cell line; conditions: Homo sapiens
A-375 = test: Inhibition of cell growth in (A375) melan cell line; conditions: Homo sapiens
L1210 [7] = test: Inhibition of cell growth in drug sensitive L1210 leukemia cell line determined by MTT assay; conditions: Mus musculus
MCF7 [8] = test: Inhibition of cell growth in (MCF7 breast) mitox cell line; conditions: Homo sapiens
RPMI-8226 [9] = test: Inhibition of cell growth in drug resistant 8226 myeloma cell line; conditions: Homo sapiens
A549 = test: Inhibition of cell growth in (A-549) lung cell line; conditions: Homo sapiens
OVCAR-3 = test: Inhibition of cell growth in (OVCAR-3) ovarian cell line; conditions: Homo sapiens

`CCNC(=O)N1CC1C#N` (stereo not given) gave a pIC50 (WiDr [1]) of 5.15, a pIC50 (RPMI-8226 [2]) of 4.66 and a pIC50 (L1210 [3]) of 4.85. For the same compound, the pIC50 (MCF7 [4]) was 4.54, the pIC50 (WiDr [5]) was 5.40 and the pIC50 (MCF7 [6]) was 4.70. It also gave a pIC50 (A-375) of 4.44, a pIC50 (L1210 [7]) of 4.85 and a pIC50 (MCF7 [8]) of 5.00. The pIC50 (RPMI-8226 [9]) was 4.59, the pIC50 (A549) was 4.74 and the pIC50 (OVCAR-3) was 4.85.
`N#CC1CN1C(=O)NC1CCCCC1` (stereo not given) was tested, and the pIC50 (WiDr [1]) was 4.92, the pIC50 (RPMI-8226 [2]) was 4.44 and the pIC50 (L1210 [3]) was 4.80. For the same compound, the pIC50 (MCF7 [4]) was 4.89, the pIC50 (WiDr [5]) was 5.62 and the pIC50 (MCF7 [6]) was 5.05. The pIC50 (A-375) was 4.46, the pIC50 (L1210 [7]) was 5.13 and the pIC50 (MCF7 [8]) was 5.01. The pIC50 (RPMI-8226 [9]) was 4.01, the pIC50 (A549) was 5.00 and the pIC50 (OVCAR-3) was 4.51.
For `CCCCNC(=O)N1CC1C#N` (stereo not given), the pIC50 (WiDr [1]) was 4.74, the pIC50 (RPMI-8226 [2]) was 4.77 and the pIC50 (L1210 [3]) was 4.92. The pIC50 (MCF7 [4]) was < 4.92, the pIC50 (WiDr [5]) was 4.85 and the pIC50 (MCF7 [6]) was 5.17. The pIC50 (A-375) was 4.82, the pIC50 (L1210 [7]) was 4.92 and the pIC50 (MCF7 [8]) was < 4.92. The pIC50 (RPMI-8226 [9]) was 4.77, the pIC50 (A549) was 4.74 and the pIC50 (OVCAR-3) was 4.92.
`CNC(=O)N1CC1C#N` (stereo not given) showed a pIC50 (WiDr [1]) of 4.64, a pIC50 (RPMI-8226 [2]) of 4.59 and a pIC50 (L1210 [3]) of 4.68. The pIC50 (MCF7 [4]) was 4.57, the pIC50 (WiDr [5]) was 4.68 and the pIC50 (MCF7 [6]) was 4.77. It also gave a pIC50 (A-375) of 4.77, a pIC50 (L1210 [7]) of 5.06 and a pIC50 (MCF7 [8]) of 4.74. It also gave a pIC50 (RPMI-8226 [9]) of 4.59, a pIC50 (A549) of 4.66 and a pIC50 (OVCAR-3) of 4.85.
`N#CC1CN1C(=O)Nc1ccc(C(F)(F)F)cc1` (stereo not given) was tested, and the pIC50 (WiDr [1]) was 5.24, the pIC50 (RPMI-8226 [2]) was 5.09 and the pIC50 (L1210 [3]) was 5.15. It also gave a pIC50 (MCF7 [4]) of 5.82, a pIC50 (WiDr [5]) of 5.89 and a pIC50 (MCF7 [6]) of 5.85. It also gave a pIC50 (A-375) of 4.93, a pIC50 (L1210 [7]) of 5.11 and a pIC50 (MCF7 [8]) of 5.89. The pIC50 (RPMI-8226 [9]) was 5.11, the pIC50 (A549) was 5.37 and the pIC50 (OVCAR-3) was 5.23.
In the case of `N#CC1CN1C(=O)Nc1cccnc1` (stereo not given), the pIC50 (WiDr [1]) was 4.74, the pIC50 (RPMI-8226 [2]) was 4.92 and the pIC50 (L1210 [3]) was 4.80. For the same compound, the pIC50 (MCF7 [4]) was 5.38, the pIC50 (WiDr [5]) was 5.22 and the pIC50 (MCF7 [6]) was 5.18. It also gave a pIC50 (A-375) of 4.92, a pIC50 (L1210 [7]) of 4.96 and a pIC50 (MCF7 [8]) of 5.27. It also gave a pIC50 (RPMI-8226 [9]) of 4.82, a pIC50 (A549) of 4.80 and a pIC50 (OVCAR-3) of 5.00.
`COC(=O)c1ccccc1NC(=O)N1CC1C#N` (stereo not given) was tested, and the pIC50 (WiDr [1]) was < 4.39, the pIC50 (RPMI-8226 [2]) was < 4.41 and the pIC50 (L1210 [3]) was < 4.41. For the same compound, the pIC50 (MCF7 [4]) was < 4.80, the pIC50 (WiDr [5]) was 4.40 and the pIC50 (MCF7 [6]) was < 4.80. The pIC50 (A-375) was < 4.41, the pIC50 (L1210 [7]) was < 4.41 and the pIC50 (MCF7 [8]) was < 4.80. For the same compound, the pIC50 (RPMI-8226 [9]) was < 4.41, the pIC50 (A549) was < 4.39 and the pIC50 (OVCAR-3) was < 4.41.
`CC(=O)c1cccc(NC(=O)N2CC2C#N)c1` (stereo not given) gave a pIC50 (WiDr [1]) of 5.05, a pIC50 (RPMI-8226 [2]) of 5.06 and a pIC50 (L1210 [3]) of 5.10. The pIC50 (MCF7 [4]) was 5.44, the pIC50 (WiDr [5]) was 5.48 and the pIC50 (MCF7 [6]) was 5.49. It also gave a pIC50 (A-375) of 5.10, a pIC50 (L1210 [7]) of 5.02 and a pIC50 (MCF7 [8]) of 5.46. The pIC50 (RPMI-8226 [9]) was 5.02, the pIC50 (A549) was 5.25 and the pIC50 (OVCAR-3) was 5.00.
`CCOC(=O)c1ccc(NC(=O)N2CC2C#N)cc1` (stereo not given) was tested, and the pIC50 (WiDr [1]) was 5.38, the pIC50 (RPMI-8226 [2]) was 5.52 and the pIC50 (L1210 [3]) was 5.01. The pIC50 (MCF7 [4]) was 5.64, the pIC50 (WiDr [5]) was 5.60 and the pIC50 (MCF7 [6]) was 5.68. The pIC50 (A-375) was 5.24, the pIC50 (L1210 [7]) was 5.01 and the pIC50 (MCF7 [8]) was 5.48. For the same compound, the pIC50 (RPMI-8226 [9]) was 5.52, the pIC50 (A549) was 5.54 and the pIC50 (OVCAR-3) was 5.11.
For `N#CC1CN1C(=O)Nc1ccc(F)cc1` (stereo not given), the pIC50 (WiDr [1]) was 5.05, the pIC50 (RPMI-8226 [2]) was 5.30 and the pIC50 (L1210 [3]) was 5.23. For the same compound, the pIC50 (MCF7 [4]) was 5.72, the pIC50 (WiDr [5]) was 5.68 and the pIC50 (MCF7 [6]) was 5.62. It also gave a pIC50 (A-375) of 5.47, a pIC50 (L1210 [7]) of 5.14 and a pIC50 (MCF7 [8]) of 5.57. The pIC50 (RPMI-8226 [9]) was 5.23, the pIC50 (A549) was 5.21 and the pIC50 (OVCAR-3) was 5.23.

Reference: ChEMBL document CHEMBL1132573, “Novel antitumor 2-cyanoaziridine-1-carboxamides” (J Med Chem, 1999)
